# System: Panel, CD-IGS and parental rat strains
# Assay: Kidney histology of gentamicin- and vehicle-treated rats
# Source text: Arrows point to regions of the proximal tabules damage scored as follows: 0=no damage, 1=25% injured tubules, 2=50% injured tubules and protein casts in lumens, 3=severe injury of >50% of tubules, 4=nearly complete necrosis of all tubules. Representative histological samples from the outbred Sprague Dawley rat CD-IGS (Panel B) and the four inbred parental strains Brown Norway, Fischer 344, Lewis and Wistar Kyoto rats (Panel C) are also shown.
# We sought to maximize the range of genetic susceptibility to the adverse drug effects across the strains.
substance,measurement,setting,value
gentamicin,damage to proximal tubules,F1 hybrids except WKYxBN,≥ 50%
same,kidney damage by histology,"LEW×F344 F1 rats, 240 mg/Kg/day",nearly complete necrosis of all proximal tubules
same,effect on the kidney,WKY rats,virtually no effect
same,injured tubules,"WKY rats, both vehicle and gentamicin treated",25%
same,renal damage by histology,WKYxBN F1 strain,little renal damage
same,tubules damaged,gentamicin-treated parental strains except WKY,greater than 50%
